According to patent US20010053778A1, “Pharmaceutical compositions of glycogen phosphorylase inhibitors” (priority 2000, published 2001):

Columns and labels:
[1] = in vitro dissolution test, microcentrifuge method, PBS (Drug 1 compositions); type: physicochemical; details: for AUC90: area under aqueous concentration versus time curve after 90 minutes; for AUC90 / C1200 / Cmax, 90: PBS, dosage 2000 μg/mL; for C1200: concentration at 1200 minutes; for Cmax, 90: maximum concentration of Drug 1 in solution during first 90 minutes; for AUC / Drug Concentration: PBS pH 6.5, 37° C.
Method: In vitro dissolution tests were performed to evaluate the performance of the amorphous dispersions of Examples 1-9 relative to the performance of Controls 1 and 2. The dissolution performance of the SDD of Example 1 was evaluated in an in vitro dissolution test using a microcentrifuge method. In this test, 14.4 mg of the SDD of Example 1 was added to a microcentrifuge tube. The tube was placed in a 37° C. sonicating bath, and 1.8 mL phosphate buffered saline (PBS) at pH 6.5 and 290 mOsm/kg was added. The samples were quickly mixed using a vortex mixer for about 60 seconds. The samples were centrifuged at 13,000 G at 37° C. for 1 minute. The resulting supernatant solution was then sampled and diluted 1:6 (by volume) with methanol and then analyzed by high-performance liquid chromatography (HPLC). The contents of the tubes were mixed on the vortex mixer and allowed to stand undisturbed at 37° C. until the next sample was taken. Samples were collected at 4, 10, 20, 40, 90, and 1200 minutes.
The performance of Example Nos. 2-8 was likewise evaluated in in vitro dissolution tests using the same microcentrifuge method described above. The dosage for each of these tests was 2000 μg/ml.
The performance of the amorphous dispersions of Example 9 were tested using the same microcentrifuge method, except that 2.5 grams of the coated beads were added to 50 mL of PBS solution (resulting in a dosage of 2000 μg/mL).
For Controls 1 and 2, in vitro dissolution tests were also performed using the same microcentrifuge method except that 3.6 mg of either crystalline or amorphous Drug 1 was used.
These compositions were evaluated in in vitro dissolution tests using the procedures outlined in Example 10. The quantities of drug and polymer noted above were each added to a microcentrifuge tube, to which was added 1.8 ml of PBS solution. The tube was vortexed immediately after adding the PBS solution.
A coating solution comprising 7.5 wt % HPMCAS-MF dissolved in 92.5 wt % solvent (5 wt % water in acetone) was prepared and spray-coated onto Nu-Core Beads (45/60 mesh), producing a thin coating of the polymer on the surface of the beads resulting in beads containing 12.2 wt % HPMCAS-MF. Samples of these beads (2.4 gm) were then mixed with 100 mg of amorphous Drug 1 (resulting in a drug:polymer ratio of 1:3 or 25 wt % Drug 1) and evaluated in an in vitro dissolution test using the procedures outlined in Example 10.
A composition was formed by blending 50 wt % of the SDD of Example 2 (containing 50 wt % Drug 1 and 50 wt % HPMCAS-MF) with 50 wt % HPMCAS-MF. This composition was evaluated in a dissolution test as described in Example 10.

[2] = in vitro dissolution test, microcentrifuge method, model fasted duodenal solution (Drug 2 compositions); type: physicochemical; design: AUC: concentration or dose not given beside the values; details: for AUC90: aqueous area under the curve after 90 minutes; for AUC90 / C1200 / Cmax, 90 / AUC: MFDS; for AUC90 / C1200 / Cmax, 90: dosage 1000 μg/mL; for C1200: concentration at 1200 minutes; for Cmax, 90: maximum concentration of Drug 2 in solution during first 90 minutes; for Drug Concentration: MFDS pH 6.5, 37° C.
Method: In vitro dissolution tests were performed to evaluate the performance of the amorphous dispersions of Examples 12-17 relative to the performance of Controls 4 and 5. The SDD of Example 12 was evaluated in an in vitro dissolution test using a microcentrifuge method. In this test, 3600 μg of the SDD of Example 12 was added to a microcentrifuge tube. The tube was placed in a 37° C. sonicating bath, and 1.8 mL of model fasted duodenal solution (MFDS), comprising phosphate buffered saline with 14.7 mM sodium taurocholic acid and 2.8 mM of 1-palmitoyl-2-oleyl-sn-glycero-3-phosphocholine, pH 6.5, 290 mOsm/kg, was added. […] The samples were quickly mixed using a vortex mixer for about 60 seconds. The samples were centrifuged at 13,000 G at 37° C. for 1 minute. The resulting supernatant solution was then sampled and diluted 1:6 (by volume) with methanol and then analyzed by high-performance liquid chromatography (HPLC). The contents of the tubes were mixed on the vortex mixer and allowed to stand undisturbed at 37° C. until the next sample was taken. Samples were collected at 4, 10, 20, 40, 90, and 1200 minutes.
For Controls 4 and 5, in vitro dissolution tests were performed using the procedures described above except that 1.8 mg of crystalline and amorphous Drug 2 was used, respectively.

AUC90 [1] | C1200 [1] [µg/mL] | Cmax, 90 [1] [µg/mL] | AUC ([1]; time 0 min) [µg·min/mL] | Drug Concentration ([1]; time 0 min) [µg/mL] | AUC ([1]; time 4 min) | Drug Concentration ([1]; time 4 min) [µg/mL] | AUC ([1]; time 10 min) | Drug Concentration ([1]; time 10 min) [µg/mL] | AUC ([1]; time 20 min) | Drug Concentration ([1]; time 20 min) [µg/mL] | AUC ([1]; time 40 min) | Drug Concentration ([1]; time 40 min) [µg/mL] | AUC ([1]; time 90 min) | Drug Concentration ([1]; time 90 min) [µg/mL] | AUC ([1]; time 1200 min) | Drug Concentration ([1]; time 1200 min) [µg/mL] | AUC90 [2] | C1200 [2] [µg/mL] | Cmax, 90 [2] [µg/mL] | Structure (SMILES) | also measured
12,800 min* μg/mL | 125 | 149 | 0 | 0 | 260 µg·min/mL | 130 | 1,100 min* μg/mL | 149 | 2,500 min* μg/mL | 139 | 5,400 min* μg/mL | 149 | 12,800 min* μg/mL | 147 | 163,800 min* μg/mL | 125 |  |  |  | O=C(N[C@@H](Cc1ccccc1)[C@@H](O)C(=O)N1C[C@@H](O)[C@@H](O)C1)c1cc2cc(Cl)ccc2[nH]1 [Control 1] | 
20,600 min* μg/mL | 203 | 586 | 0 | 0 | 1,200 min* μg/mL | 586 | 4,400 min* μg/mL | 473 | 7,800 min* μg/mL | 220 | 11,700 min* μg/mL | 182 | 20,600 min* μg/mL | 167 | 225,900 min* μg/mL | 203 |  |  |  | O=C(N[C@@H](Cc1ccccc1)[C@@H](O)C(=O)N1C[C@@H](O)[C@@H](O)C1)c1cc2cc(Cl)ccc2[nH]1 [Control 2] | AUC ([1]; time 180 min): 35,200 min* μg/mL; Drug Concentration ([1]; time 180 min): 158 µg/mL
 |  |  |  |  |  |  |  |  |  |  |  |  |  |  |  |  | 5,900 min* μg/mL | 102 | 82 | O=C(N[C@@H](Cc1ccccc1)C(=O)N1CC(O)C1)c1cc2cc(Cl)ccc2[nH]1 [Control 4] | AUC ([2]; time 0 min): 0 µg·min/mL; Drug Concentration ([2]; time 0 min): 0 µg/mL; AUC ([2]; time 4 min): 90 µg·min/mL; Drug Concentration ([2]; time 4 min): 45 µg/mL; AUC ([2]; time 10 min): 357 µg·min/mL; Drug Concentration ([2]; time 10 min): 44 µg/mL; AUC ([2]; time 20 min): 842 µg·min/mL; Drug Concentration ([2]; time 20 min): 53 µg/mL; AUC ([2]; time 40 min): 2,100 min* μg/mL; Drug Concentration ([2]; time 40 min): 72 µg/mL; AUC ([2]; time 90 min): 5,900 min* μg/mL; Drug Concentration ([2]; time 90 min): 82 µg/mL; AUC ([2]; time 1200 min): 108,100 min* μg/mL; Drug Concentration ([2]; time 1200 min): 102 µg/mL
 |  |  |  |  |  |  |  |  |  |  |  |  |  |  |  |  | 20,800 min* μg/mL | 370 | 268 | O=C(N[C@@H](Cc1ccccc1)C(=O)N1CC(O)C1)c1cc2cc(Cl)ccc2[nH]1 [Control 5] | AUC ([2]; time 0 min): 0 µg·min/mL; Drug Concentration ([2]; time 0 min): 0 µg/mL; AUC ([2]; time 4 min): 302 µg·min/mL; Drug Concentration ([2]; time 4 min): 151 µg/mL; AUC ([2]; time 10 min): 1,400 min* μg/mL; Drug Concentration ([2]; time 10 min): 203 µg/mL; AUC ([2]; time 20 min): 3,500 min* μg/mL; Drug Concentration ([2]; time 20 min): 225 µg/mL; AUC ([2]; time 40 min): 8,100 min* μg/mL; Drug Concentration ([2]; time 40 min): 238 µg/mL; AUC ([2]; time 90 min): 20,800 min* μg/mL; Drug Concentration ([2]; time 90 min): 268 µg/mL; AUC ([2]; time 1200 min): 374,900 min* μg/mL; Drug Concentration ([2]; time 1200 min): 370 µg/mL
